This test concerns Tau-mCherry (Tau 441 isoform) on stabilized MTs from porcine brain tubulin. In words: Tau-mCherry binding to stabilized MTs (TIRF). To be noted: for initial Tau envelope coverage / Tau envelope growth velocity: 10 nM Tau-mCherry; for initial Tau envelope coverage: MTs polymerized in the presence of drug; for Tau-mCherry coating of stabilized MTs / Tau envelope coverage of MT length: 40 nM Tau-mCherry. Type of test: biochemical. An excerpt: Previous studies in vitro have shown that Tau molecules strongly prefer compacted GDP lattices. Tau binds cooperatively to MT surfaces, resulting in a cohesive layer depending on tau-tau interactions, termed MT envelope, which selectively regulates access to MT lattices, and shields MTs from severing enzymes. − On expanded PTX-MTs, Tau envelope also forms and the lattice can get locally compacted. To further explore how MT lattice structure influences Tau binding, we employed an in vitro reconstitution assay. We deposited stabilized MTs in a flow chamber, and visualized them via interference reflection microscopy (Figure C). We then added 10 nM Tau-mCherry (labeled purified Tau 441 isoform at the C-terminus with mCherry) and monitored its association with MTs using time-lapse TIRF microscopy. After 4 min, we increased Tau concentration to 40 nM, and continued imaging for an additional 4 min. We measured fluorescence intensities along MTs to quantify Tau binding (Movies S16–S27). […] PTXpost-MTs also supported […] faster envelope growth (0.20 ± 0.02 μm/s versus 0.054 ± 0.006 μm/s for PTXpre-MTs, Figure H).
Total Internal Reflection Fluorescence microscopy experiments were performed on an inverted widefield microscope Nikon-Ti2 E, equipped with a motorized XY-stage, a perfect focus system, Apo TIRF 60× oil NA 1.49 objective and PRIME BSY (Teledyne Photometrics) camera. MTs were visualized using Interference Reflection microscopy (IRM) and fluorescently labeled proteins were visualized sequentially by switching between microscope filter cubes for GFP and mCherry channels. The microscopes were controlled using NIS Elements software (Nikon). All experiments were conducted at RT.
Microscopy chambers were prepared from two sandwiched silanized glass coverslips (22 × 22 mm^2 and 18 × 18 mm^2) attached through parafilm strips (heated for 15–20 s at 60 °C and gently pressed together) to form ∼2.5 mm wide parallel flow channels. Prior to the chamber assembly, the coverslips were washed in 3 M KOH, cleaned using Zepto plasma cleaner (Diener electronic) and silanized with hexamethyldisilazane. Flow channels were first incubated with 40 μgml^–1 antibiotin antibodies (Sigma, B3640) in PBS for 10 min, followed by incubation with 1% Pluronic F127 (Sigma-Aldrich, P2443) in PBS for at least 1 h. F127 was washed with BRB80 (80 mM PIPES, 1 mM EGTA, 1 mM MgCl2, pH 6.9).
Porcine brain tubulin was isolated using the high-molarity PIPES procedure then mixed with Biotin labeled tubulin (Cytoskeleton Inc., T333P) in 1:49 ratio. All MTs were polymerized using 2% biotin-labeled tubulin. […] Polymerized MTs were centrifuged for 30 min at 18,000g in a Microfuge 18 Centrifuge (Beckman Coulter’s). […] Drug stabilized preassembly MTs (polymerized in the presence of drugs and GTP, stored and imaged in presence of drug) were polymerized from 4 mg mL^–1 biotinylated tubulin for 30 min at 37 °C in BRB80 supplemented with 4 mM MgCl2, 40 μM drug of interest in 5% DMSO, and 1 mM GTP. Polymerized MTs were centrifuged for 30 min at 18,000g in a Microfuge 18 Centrifuge (Beckman Coulter’s). […] GMPCPP stabilized MTs (GMPCPP polymerized) were assembled from 4 mg mL^–1 biotinylated tubulin for 2 h at 37 °C in BRB80 supplemented with 1 mM MgCl2 and 1 mM GMPCPP (Jena Bioscience, NU-405). Polymerized MTs were centrifuged for 30 min at 18,000g in a Microfuge 18 Centrifuge (Beckman Coulter’s) and pellets were resuspended and kept in BRB80.
Stabilized MTs were flushed into the channel and incubated for 15–30 s to allow for surface attachment. Unbound MTs were removed by washing with BRB80 supplemented with 10 μM of drug. Prior the experiment, the solution was exchanged by motility buffer, MB (BRB80 containing 10 mM DTT, 20 mM D-glucose, 0.1% Tween-20, 0.5 mg/mL casein, 1 mM Mg-ATP, 0.02 mg/mL catalase, 0.22 mg/mL glucose oxidase, 10 μM drug). Subsequently, a solution containing either 1.08 nM Kif5b-EGFP or 10/40 nM mCherry-Tau in MB was introduced into the chamber. […]

The mark [1] stands for this setting: MTs polymerized in the presence of drug (preassembly).
The mark [2] stands for this setting: MTs stabilized with PTX after polymerization (PTXpost).

Four compounds from article PMC13492380, “Dissecting Structural and Functional Determinants of Microtubules Stabilization through Guided Chemical Modulation” (Journal of Medicinal Chemistry, 2026) can be followed below.

`CC(=O)OC1C(=O)C2(C)C(OC(=O)CCCCC(=O)OC3CCc4ccccc43)CC3OCC3(OC(C)=O)C2C(OC(=O)c2ccccc2)C2(O)CC(OC(=O)C(O)C(NC(=O)c3ccccc3)c3ccccc3)C(C)=C1C2(C)C` (stereo not shown) [1a, 7-O-(6″-O-(2‴,3‴-Dihydroinden-1‴-yl)hexanedioyl) Paclitaxel]: the “initial Tau envelope coverage” value is recorded as 40% and the “Tau-mCherry coating of stabilized MTs” value is reported as “fully coated”. Besides, the “Tau envelope growth velocity” value under setting [1] came to 1.5 ± 0.1 μm/s.
The like results for `COc1ccc2c(c1)CC(NC(=O)CCCCCCCC(=O)OC1CC3OCC3(OC(C)=O)C3C(OC(=O)c4ccccc4)C4(O)CC(OC(=O)C(O)C(NC(=O)c5ccccc5)c5ccccc5)C(C)=C(C(OC(C)=O)C(=O)C13C)C4(C)C)CC2` [1b, 7-O-((S)-9″-(7‴-Methoxy-1‴,2‴,3‴,4‴-tetrahydronaphthalen-2‴-yl)amino) −9″-oxononanoyl) Paclitaxel] were, in that order, 20%, “fully coated” and 0.46 ± 0.05 μm/s.
With `CC(=O)O[C@H]1C(=O)[C@]2(C)[C@@H](OC(=O)[C@H](C)NC(=O)c3ccc(-c4c5cc(F)c(=O)cc-5oc5cc(O)c(F)cc45)c(C(=O)O)c3)C[C@H]3OC[C@@]3(OC(C)=O)[C@H]2[C@H](OC(=O)c2ccccc2)[C@]2(O)C[C@H](OC(=O)[C@H](O)[C@@H](NC(=O)c3ccccc3)c3ccccc3)C(C)=C1C2(C)C` [FTX2, Flutax2], the “initial Tau envelope coverage” value is 60% and the “Tau-mCherry coating of stabilized MTs” value is “fully coated”. Further, the “Tau envelope growth velocity” value under setting [1] amounted to 1.37 ± 0.09 μm/s.
In the case of `CC(=O)O[C@H]1C(=O)[C@@]2(C)[C@H]([C@H](OC(=O)c3ccccc3)[C@]3(O)C[C@H](OC(=O)[C@H](O)[C@@H](NC(=O)c4ccccc4)c4ccccc4)C(C)=C1C3(C)C)[C@]1(OC(C)=O)CO[C@@H]1C[C@@H]2O` [PTX, Paclitaxel], the “Tau envelope growth velocity” value runs as follows: under setting [1], 0.054 ± 0.006 μm/s; under setting [2], 0.20 ± 0.02 μm/s. For the same compound, the “Tau envelope coverage of MT length” value is, setting by setting: (MTs assembled in the presence of PTX (PTXpre)) 30%; under setting [2], “up to 60%”.
